Literature values in patent publication US20060078974A1, “Novel purified hydroxymethylglutaryl-CoA reductases and structures thereof” (Affinium Pharmaceuticals, Inc., priority 2004, published 2006).

Target: S. aureus HMGR
Settings: inhibition of S. aureus HMGR; reported value

Structure (SMILES): CC(C)n1c(/C=C/[C@@H](O)C[C@@H](O)CC(=O)O)c(-c2ccc(F)cc2)c2ccccc21 (racemic) [Fluvastatin]
- Ki: ~320 µM
